Experimental data published in publication PMC6199744, “Development of Chemical Proteomics for the Folateome and Analysis of the Kinetoplastid Folateome” (ACS Infectious Diseases, 2018).
Read-outs that look alike come from different tables or passages of the source.

Legend:
Format in all cases: binding
[1] = biological target: T1, HeLa cell extract proteins (Homo sapiens, UniProt P49327)
T1 construct: endogenous in cells; host or cells: HeLa cell extract

[2] = biological target: T2, HeLa cell extract proteins (Homo sapiens, UniProt P50416)
T2 construct: endogenous in cells; host or cells: HeLa cell extract
T2 sequence (P50416 1-773): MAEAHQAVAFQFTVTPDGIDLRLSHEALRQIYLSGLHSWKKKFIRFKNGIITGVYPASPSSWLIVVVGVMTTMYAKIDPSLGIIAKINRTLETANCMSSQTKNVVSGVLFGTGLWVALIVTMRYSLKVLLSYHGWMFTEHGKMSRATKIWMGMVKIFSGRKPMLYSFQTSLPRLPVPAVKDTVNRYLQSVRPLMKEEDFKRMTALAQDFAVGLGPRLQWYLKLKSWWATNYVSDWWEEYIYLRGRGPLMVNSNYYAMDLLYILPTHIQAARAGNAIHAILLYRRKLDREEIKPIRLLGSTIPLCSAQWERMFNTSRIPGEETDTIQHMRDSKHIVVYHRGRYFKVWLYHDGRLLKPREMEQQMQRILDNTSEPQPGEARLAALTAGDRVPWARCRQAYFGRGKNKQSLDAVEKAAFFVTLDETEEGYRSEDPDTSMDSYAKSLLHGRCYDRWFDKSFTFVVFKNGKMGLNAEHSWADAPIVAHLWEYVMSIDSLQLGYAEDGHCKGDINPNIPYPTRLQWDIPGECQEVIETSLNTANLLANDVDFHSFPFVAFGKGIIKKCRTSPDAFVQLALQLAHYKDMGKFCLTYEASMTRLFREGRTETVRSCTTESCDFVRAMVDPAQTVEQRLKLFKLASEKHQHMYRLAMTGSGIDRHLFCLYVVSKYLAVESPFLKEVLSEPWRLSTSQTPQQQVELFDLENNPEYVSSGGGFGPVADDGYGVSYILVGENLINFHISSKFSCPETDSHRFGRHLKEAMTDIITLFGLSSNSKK

[3] = biological target: T3, HeLa cell extract proteins (Homo sapiens, UniProt P61604)
T3 construct: endogenous in cells; host or cells: HeLa cell extract

[4] = biological target: T4, HeLa cell extract proteins (Homo sapiens, UniProt Q02790)
T4 construct: endogenous in cells; host or cells: HeLa cell extract
T4 sequence (Q02790 1-459): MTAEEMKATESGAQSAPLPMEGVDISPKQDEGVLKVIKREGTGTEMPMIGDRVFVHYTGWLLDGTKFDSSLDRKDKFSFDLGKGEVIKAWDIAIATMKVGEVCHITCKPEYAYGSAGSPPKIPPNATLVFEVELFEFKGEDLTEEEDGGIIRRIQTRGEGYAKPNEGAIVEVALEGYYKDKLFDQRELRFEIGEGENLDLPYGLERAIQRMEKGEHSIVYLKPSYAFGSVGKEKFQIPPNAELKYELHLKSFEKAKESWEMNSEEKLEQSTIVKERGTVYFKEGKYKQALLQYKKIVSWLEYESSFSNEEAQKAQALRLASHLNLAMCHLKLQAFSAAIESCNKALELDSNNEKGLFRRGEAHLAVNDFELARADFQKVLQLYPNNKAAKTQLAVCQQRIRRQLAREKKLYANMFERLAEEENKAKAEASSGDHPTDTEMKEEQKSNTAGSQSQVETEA

[5] = biological target: T5, HeLa cell extract proteins (Homo sapiens, UniProt Q13310)
T5 construct: endogenous in cells; host or cells: HeLa cell extract

[6] = biological target: T6, HeLa cell extract proteins (Homo sapiens, UniProt Q9Y573)
T6 construct: endogenous in cells; host or cells: HeLa cell extract
T6 sequence (Q9Y573 1-584): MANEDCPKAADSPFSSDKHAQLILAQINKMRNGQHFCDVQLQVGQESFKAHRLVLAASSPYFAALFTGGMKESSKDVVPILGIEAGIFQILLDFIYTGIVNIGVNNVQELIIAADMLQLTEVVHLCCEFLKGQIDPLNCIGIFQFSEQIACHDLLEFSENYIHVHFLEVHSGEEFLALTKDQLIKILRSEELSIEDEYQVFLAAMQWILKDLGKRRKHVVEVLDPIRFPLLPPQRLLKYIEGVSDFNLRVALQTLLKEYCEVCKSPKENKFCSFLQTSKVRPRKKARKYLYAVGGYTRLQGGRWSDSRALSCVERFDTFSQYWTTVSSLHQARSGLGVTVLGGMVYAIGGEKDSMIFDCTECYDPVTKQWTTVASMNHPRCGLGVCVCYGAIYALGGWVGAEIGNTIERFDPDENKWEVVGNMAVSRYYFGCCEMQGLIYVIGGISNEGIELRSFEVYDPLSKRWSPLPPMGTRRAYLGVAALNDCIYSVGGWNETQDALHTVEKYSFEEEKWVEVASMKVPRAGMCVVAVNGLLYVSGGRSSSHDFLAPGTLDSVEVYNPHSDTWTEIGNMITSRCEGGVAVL

[7] = HeLa, protein FKBP4 (FK506-BINDING PROTEIN 4.)
[8] = HeLa, protein IPP (ACTIN-BINDING PROTEIN IPP)

T3 sequence (P61604 whole entry): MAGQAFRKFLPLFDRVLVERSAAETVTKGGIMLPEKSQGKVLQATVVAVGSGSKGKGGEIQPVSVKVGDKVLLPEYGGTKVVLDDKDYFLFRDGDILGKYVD
T1 sequence (P49327 whole entry): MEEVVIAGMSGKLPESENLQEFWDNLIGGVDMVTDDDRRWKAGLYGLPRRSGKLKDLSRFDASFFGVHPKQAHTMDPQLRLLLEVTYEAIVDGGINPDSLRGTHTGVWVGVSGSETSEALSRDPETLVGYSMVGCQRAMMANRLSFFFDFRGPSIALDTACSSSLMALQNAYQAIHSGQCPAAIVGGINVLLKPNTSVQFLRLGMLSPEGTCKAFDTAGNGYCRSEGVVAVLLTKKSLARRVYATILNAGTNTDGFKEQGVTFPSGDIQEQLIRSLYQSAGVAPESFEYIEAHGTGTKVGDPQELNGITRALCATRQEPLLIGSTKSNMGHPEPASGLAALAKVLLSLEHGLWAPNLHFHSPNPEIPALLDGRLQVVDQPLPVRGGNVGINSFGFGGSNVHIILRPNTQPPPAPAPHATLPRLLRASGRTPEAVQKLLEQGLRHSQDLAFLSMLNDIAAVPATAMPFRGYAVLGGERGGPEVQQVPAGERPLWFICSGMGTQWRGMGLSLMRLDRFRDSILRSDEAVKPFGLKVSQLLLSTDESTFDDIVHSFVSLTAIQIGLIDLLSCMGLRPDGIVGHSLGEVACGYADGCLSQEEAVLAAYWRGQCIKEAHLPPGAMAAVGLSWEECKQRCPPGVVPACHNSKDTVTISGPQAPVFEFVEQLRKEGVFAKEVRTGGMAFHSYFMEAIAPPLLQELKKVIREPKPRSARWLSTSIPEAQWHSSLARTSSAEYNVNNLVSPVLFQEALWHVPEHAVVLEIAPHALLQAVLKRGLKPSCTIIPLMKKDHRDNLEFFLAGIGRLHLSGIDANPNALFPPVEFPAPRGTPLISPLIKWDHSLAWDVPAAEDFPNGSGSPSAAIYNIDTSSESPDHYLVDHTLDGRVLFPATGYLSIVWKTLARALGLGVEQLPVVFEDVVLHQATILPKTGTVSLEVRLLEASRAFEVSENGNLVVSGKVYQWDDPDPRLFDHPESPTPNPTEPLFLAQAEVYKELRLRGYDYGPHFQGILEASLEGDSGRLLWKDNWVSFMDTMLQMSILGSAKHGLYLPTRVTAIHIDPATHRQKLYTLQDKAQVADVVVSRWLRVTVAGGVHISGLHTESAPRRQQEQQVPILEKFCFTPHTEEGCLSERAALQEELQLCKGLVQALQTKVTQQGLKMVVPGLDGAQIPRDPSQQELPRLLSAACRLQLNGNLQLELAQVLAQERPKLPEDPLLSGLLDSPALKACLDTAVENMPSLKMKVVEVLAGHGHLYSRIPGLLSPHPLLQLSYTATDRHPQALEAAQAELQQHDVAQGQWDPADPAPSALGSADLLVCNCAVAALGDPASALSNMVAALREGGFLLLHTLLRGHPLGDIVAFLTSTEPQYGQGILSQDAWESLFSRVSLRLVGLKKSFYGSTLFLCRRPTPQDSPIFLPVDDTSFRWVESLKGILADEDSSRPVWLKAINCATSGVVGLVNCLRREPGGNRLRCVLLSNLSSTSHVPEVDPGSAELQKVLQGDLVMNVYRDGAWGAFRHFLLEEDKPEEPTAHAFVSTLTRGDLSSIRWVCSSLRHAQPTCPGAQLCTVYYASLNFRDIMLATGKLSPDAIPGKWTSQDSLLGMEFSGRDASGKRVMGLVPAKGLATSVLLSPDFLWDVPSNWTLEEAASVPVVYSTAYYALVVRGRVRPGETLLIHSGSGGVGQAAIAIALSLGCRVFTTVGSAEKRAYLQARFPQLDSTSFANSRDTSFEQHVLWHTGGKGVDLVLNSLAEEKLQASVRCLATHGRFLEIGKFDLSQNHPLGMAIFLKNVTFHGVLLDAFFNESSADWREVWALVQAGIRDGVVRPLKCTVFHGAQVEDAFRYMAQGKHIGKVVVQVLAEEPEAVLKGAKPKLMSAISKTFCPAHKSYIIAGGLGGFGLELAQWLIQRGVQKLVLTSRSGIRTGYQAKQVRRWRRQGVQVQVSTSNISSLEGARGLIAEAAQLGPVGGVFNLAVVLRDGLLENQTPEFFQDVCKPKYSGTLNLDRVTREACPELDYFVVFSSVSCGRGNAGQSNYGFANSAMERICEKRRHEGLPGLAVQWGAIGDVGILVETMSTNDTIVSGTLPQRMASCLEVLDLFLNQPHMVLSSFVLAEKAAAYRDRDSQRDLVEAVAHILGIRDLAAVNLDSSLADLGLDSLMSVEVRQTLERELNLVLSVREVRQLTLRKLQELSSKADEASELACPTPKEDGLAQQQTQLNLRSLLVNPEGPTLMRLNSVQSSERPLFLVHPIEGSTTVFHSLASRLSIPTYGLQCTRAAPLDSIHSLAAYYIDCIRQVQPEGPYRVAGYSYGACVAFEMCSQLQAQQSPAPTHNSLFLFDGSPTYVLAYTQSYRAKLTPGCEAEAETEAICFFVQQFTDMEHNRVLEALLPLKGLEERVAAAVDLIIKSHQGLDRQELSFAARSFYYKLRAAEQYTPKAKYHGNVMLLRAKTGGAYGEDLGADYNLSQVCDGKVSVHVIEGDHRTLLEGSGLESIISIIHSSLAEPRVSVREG
T5 sequence (Q13310 whole entry): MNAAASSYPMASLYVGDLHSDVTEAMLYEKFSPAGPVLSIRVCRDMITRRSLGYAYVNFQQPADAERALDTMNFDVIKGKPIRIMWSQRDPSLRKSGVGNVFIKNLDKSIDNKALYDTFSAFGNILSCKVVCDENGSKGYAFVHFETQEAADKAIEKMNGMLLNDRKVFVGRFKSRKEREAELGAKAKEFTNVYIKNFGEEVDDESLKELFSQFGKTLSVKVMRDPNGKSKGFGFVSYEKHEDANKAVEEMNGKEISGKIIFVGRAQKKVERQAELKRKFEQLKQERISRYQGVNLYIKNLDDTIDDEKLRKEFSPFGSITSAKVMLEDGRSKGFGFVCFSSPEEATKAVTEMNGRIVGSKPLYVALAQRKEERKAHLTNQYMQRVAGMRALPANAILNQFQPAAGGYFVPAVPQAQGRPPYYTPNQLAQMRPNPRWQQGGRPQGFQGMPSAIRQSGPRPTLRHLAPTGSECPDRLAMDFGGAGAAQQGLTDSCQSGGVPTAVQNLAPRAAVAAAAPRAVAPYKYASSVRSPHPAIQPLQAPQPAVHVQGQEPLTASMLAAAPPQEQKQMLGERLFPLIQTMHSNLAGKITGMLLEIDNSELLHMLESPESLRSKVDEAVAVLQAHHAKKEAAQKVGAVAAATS

| SMILES | fold changes relative to vehicle control ([1]; protein FASN, HeLa) | fold changes relative to vehicle control ([2]; captured protein CPT1A, HeLa) | fold changes relative to vehicle control ([3]; protein HSPE1, HeLa) | fold changes relative to vehicle control [4, 7] [fold] | fold changes relative to vehicle control ([5]; captured protein PABPC4, HeLa) | fold changes relative to vehicle control ([6]; protein IPP, HeLa) | fold changes relative to vehicle control ([1]; HeLa, captured protein FASN) | fold changes relative to vehicle control ([2]; HeLa, protein CPT1A) | fold changes relative to vehicle control ([3]; HeLa, protein HSPE1) | fold changes relative to vehicle control ([4]; HeLa, protein FKBP4) | fold changes relative to vehicle control ([5]; HeLa, protein PABPC4) | fold changes relative to vehicle control [6, 8] | further results |
| --- | --- | --- | --- | --- | --- | --- | --- | --- | --- | --- | --- | --- | --- |
| CCCCCCOc1cccc(Cc2cnc(N)nc2N)c1 [compound 2] | 1.25 | 1.04 | 2.39 | 2.28 | 1.2 | 1.05 | – | – | – | – | – | – | – |
| NCCOCCOCC(=O)Nc1nc2ncc(CNc3ccc(C(=O)NC(CCC(=O)O)C(=O)O)cc3)nc2c(=O)[nH]1 (stereo not drawn) [compound 6] | – | – | – | – | – | – | 1.2 | 1.01 | 1.69 | 1.4 | 1.06 | 0.89 | – |
| CCCCCCOc1ccc(Cc2cnc(N)nc2N)cc1 [compound 1] | 1.07 | 0.9 | 1.38 | 1.48 | 0.86 | 1.03 | – | – | – | – | – | – | – |
| Nc1nc2c(c(=O)[nH]1)N(C=O)C(CNc1ccc(C(=O)N[C@@H](CCC(=O)O)C(=O)O)cc1)CN2 (stereo partly drawn) [LEU, leucovorin] | – | – | – | – | – | – | 1.13 | 0.88 | 1.16 | 1.01 | 0.83 | 0.99 | – |
| NCCCNc1ccc(C(=O)NC(CCC(=O)O)C(=O)O)cc1 (stereo not drawn) [compound 7] | – | – | – | – | – | – | 1.2 | 0.99 | 1.15 | 1.05 | 1 | 0.9 | – |
| Nc1nc2[nH]cc(CCc3ccc(C(=O)N[C@@H](CCC(=O)O)C(=O)O)cc3)c2c(=O)[nH]1 [PTX, pemetrexed] | – | – | – | – | – | – | – | – | – | – | – | – | fold changes relative to vehicle control [1]: 1.09; fold changes relative to vehicle control [2]: 0.84; fold changes relative to vehicle control [3]: 1.42; fold changes relative to vehicle control [4]: 1.18; fold changes relative to vehicle control [5]: 0.93; fold changes relative to vehicle control [6]: 0.92 |
| Nc1nc2cccc(-c3ccccc3)c2n1Cc1ccc(Cl)c(Cl)c1 [compound 3] | 1.17 | 0.95 | 0.85 | 1.05 | 0.94 | 0.93 | – | – | – | – | – | – | – |
